The experiment has as its system KSHV genome replication in BCBL-1 cells. Kind of experiment: Relative viral genomic copy number (latency) by qPCR in BCBL-1 cells. Format: cell-based. The conditions noted are these: Fig. S1F, 100 μM, 48 h. A general note: In qPCR the cycle at which signal appears reflects the starting amount.

Take Ac-YGRKKRRQRRRGGVNQSASQSSN-NH2 [p8]: the “Relative viral genomic copy number” value (replicate 1) was determined as 1.16, the “Relative viral genomic copy number” value (replicate 2) is on record as 1.11 and the “Relative viral genomic copy number” value (replicate 3) stood at 0.96.

Values taken from publication PMC12047801, “Disrupting the OTUD4-USP7 deubiquitinase complex to suppress herpesvirus replication: a novel antiviral strategy” (PLOS Pathogens, 2025).
